# Reference: patent US8624027B2, “Combination therapy for treating cancer and diagnostic assays for use therein” (AbbVie Inc., priority 2005, dated 2014)
# Where two headings read alike, the source gives them in different places.
# Assays:
# [1] = Pharmacokinetic evaluation in rat; assay type: in vivo; conditions: male, Sprague-Dawley, plasma; for AUC(0-inf): single 5 mg/kg oral dose, Table 1, read-out: Pharmacokinetic area under the plasma concentration Curve (rat) AUC0-∞; for AUC / Cmax: 5 mg/kg, oral
# Outline: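 Male Sprague-Dawley rats (n=3/group) received a single 2 mg/kg IV (jugular slow bolus) or 5 mg/kg oral gavage dose in 10% DMSO/PEG-400; tail-vein plasma sampled to 24 h. Acetonitrile-precipitated plasma quantified by LC-MS/MS (LOQ 0.01 μg/mL); AUC0-∞ by linear trapezoidal rule plus Ct/β extrapolation.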
# Bcl-XL protein = Bcl-XL protein (Homo sapiens, UniProt Q07817); experiment: Bcl-XL binding affinity, fluorescence polarization with fluorescein-labeled BAD peptide; conditions: Wang's equation, read-out: Target Binding Affinity Ki (Bcl-XL)
# Description: A mixture comprising 125 μL per well of assay buffer (20 mM phosphate buffer (pH 7.4), 1 mM EDTA, 50 mM NaCl, 0.05% PF-68), 6 nM of Bcl-XL protein (prepared as described in Science 1997, 275, 983-986), 1 nM fluorescein-labeled BAD peptide (prepared in-house) and the DMSO solution of the compound was shaken for 2 minutes and placed in a LJL Analyst (LJL Bio Systems, CA). A negative control (DMSO, 15 nM BAD peptide, assay buffer) and a positive control (DMSO, 1 nM BAD peptide, 6 nM Bcl-XL, assay buffer) were used to determine the range of the assay. Polarization was measured at room temperature using a continuous Fluorescein lamp (excitation 485 nm, emission 530 nm). Percentage of inhibition was determined by (1-((mP value of well-negative control)/range))×100%.
# Ki values shown in the tables below were determined using Wang's equation (Wang Z X., An Exact Mathematical Expression For Describing Competitive Binding Of Two Different Ligands To A Protein Molecule. FEBS Lett. 1995; 360:111-4)).
# [2] = test system: NCI-H146 human small cell lung carcinoma cells; experiment: Cellular efficacy in human tumor cell line (MTS viability assay); assay type: cell-based; conditions: NCI-H146, 10% human serum, 48 hours
# Outline: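 Cells plated at 50,000/well in medium with 10% human serum in place of FBS. Treated with 2-fold serial dilutions from 10 μM to 0.020 μM, in duplicate, at least 3 separate runs. Viable cells measured by MTS after 48 h of compound exposure.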
# Bcl-2 protein = biological target: T1, Bcl-2 protein (Homo sapiens, UniProt P10415, DELINS35-91DVEENRTEAPEGTESE, form not given); experiment: Bcl-2 binding affinity, fluorescence polarization with fluorescein-labeled BAX peptide; conditions: Wang's equation, read-out: Target Binding Affinity Ki (Bcl-2)
# T1 construct: fused on or other part: A short piece of the Bcl-xL (Q07817) loop replaces Bcl-2 loop residues 35-91; The C-terminal membrane anchor is absent
# [3] = Table 1, read-out: NCI-H146 Cellular Efficacy EC50
# [4] = Table 3, read-out: Pharmacokinetic area under the plasma concentration Curve (rat) AUC
# [5] = Table 3, read-out: Pharmacokinetic peak plasma concentration (rat) Cmax
# [6] = Table 3, read-out: NCI-H146 Cellular Efficacy H146 EC50
# T1 sequence (P10415 with tags, fused parts or gaps with the stated changes): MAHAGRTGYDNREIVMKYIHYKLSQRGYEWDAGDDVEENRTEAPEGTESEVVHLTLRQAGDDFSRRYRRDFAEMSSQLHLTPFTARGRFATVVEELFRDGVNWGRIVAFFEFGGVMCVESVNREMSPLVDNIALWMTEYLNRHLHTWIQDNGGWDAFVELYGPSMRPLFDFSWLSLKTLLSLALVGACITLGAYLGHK
# Bcl-XL protein, sequence (Q07817 with tags, fused parts or gaps DEL45-84): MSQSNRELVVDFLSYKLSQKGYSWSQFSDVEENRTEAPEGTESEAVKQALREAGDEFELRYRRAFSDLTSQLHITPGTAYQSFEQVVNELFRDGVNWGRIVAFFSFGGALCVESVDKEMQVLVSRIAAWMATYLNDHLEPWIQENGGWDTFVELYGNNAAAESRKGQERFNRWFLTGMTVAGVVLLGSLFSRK
Compound,AUC(0-inf) [1] [µM·h],Ki (Bcl-XL protein) [nM],"EC50 [2, 3] [nM]",Ki (Bcl-2 protein) [nM],"AUC [1, 4] [µM·h]","Cmax [1, 5] [nM]","EC50 [2, 6] [nM]","AUC ([1]; Table 2, read-out: Pharmacokinetic area under the plasma concentration curve (rat) AUC) [µM·h]","Cmax ([1]; Table 2, read-out: Pharmacokinetic peak plasma concentration (rat) Cmax) [nM]","EC50 ([2]; Table 2, read-out: NCI-H146 Cellular Efficacy H146, EC50) [nM]"
"CC1(C)CCC(c2ccc(Cl)cc2)=C(CN2CCN(c3ccc(C(=O)NS(=O)(=O)c4ccc(N[C@H](CCN5CCOCC5)CSc5ccccc5)c(S(=O)(=O)C(F)(F)Cl)c4)cc3)CC2)C1 [Example 19, 3-((chloro(difluoro)methyl)sulfonyl)-N-(4-(4-((2-(4-chlorophenyl)-5,5-dimethylcyclohex-1-en-1-yl)methyl)piperazin-1-yl)benzoyl)-4-(((1R)-3-(morpholin-4-yl)-1-((phenylsulfanyl)methyl)propyl)amino)benzenesulfonamide]",7.12,≤ 1,15.8,≤ 1,–,–,–,–,–,–
"O=C(NS(=O)(=O)c1ccc(N[C@H](CCN2C[C@@H]3C[C@H]2CO3)CSc2ccccc2)c(S(=O)(=O)C(F)(F)Cl)c1)c1ccc(N2CCN(CC3=C(c4ccc(Cl)cc4)CCCC3)CC2)cc1 [Example 6, 3-((chloro(difluoro)methyl)sulfonyl)-N-(4-(4-((2-(4-chlorophenyl)cyclohex-1-en-1-yl)methyl)piperazin-1-yl)benzoyl)-4-(((1R)-3-((1S,4S)-2-oxa-5-azabicyclo[2.2.1]hept-5-yl)-1-((phenylsulfanyl)methyl)propyl)amino)benzenesulfonamide]",0.91,≤ 1,1,≤ 1,0.913,113,10,–,–,–
"CN(C)CC[C@H](CSc1ccccc1)Nc1ccc(S(=O)(=O)NC(=O)c2ccc(N3CCN(Cc4ccccc4-c4ccc(Cl)cc4)CC3)cc2)cc1S(=O)(=O)C(F)(F)F [Example 38, N-(4-(4-((4′-chloro(1,1′-biphenyl)-2-yl)methyl)-1-piperazinyl)benzoyl)-4-(((1R)-3-(dimethylamino)-1-((phenylsulfanyl)methyl)propyl)amino)-3-((trifluoromethyl)sulfonyl)benzenesulfonamide]",0.67,≤ 1,39.4,≤ 1,–,–,–,0.665,72,39
"O=C(NS(=O)(=O)c1ccc(N[C@H](CCN2CC3CC2CO3)CSc2ccccc2)c(S(=O)(=O)C(F)(F)F)c1)c1ccc(N2CCN(CC3=C(c4ccc(Cl)cc4)CCCC3)CC2)cc1 (stereo partly drawn) [Example 9, N-(4-(4-((2-(4-chlorophenyl)cyclohex-1-en-1-yl)methyl)piperazin-1-yl)benzoyl)-4-(((1R)-3-(2-oxa-5-azabicyclo[2.2.1]hept-5-yl)-1-((phenylsulfanyl)methyl)propyl)amino)-3-((trifluoromethyl)sulfonyl)benzenesulfonamide]",1.88,≤ 1,13.7,≤ 1,1.88,156,14,–,–,–
"CC1(C)CCC(CN2CCN(c3ccc(C(=O)NS(=O)(=O)c4ccc(N[C@H](CCN5CCCC5)CSc5ccccc5)c(S(=O)(=O)C(F)(F)F)c4)cc3)CC2)=C(c2ccc(Cl)cc2)C1 [Example 34, N-(4-(4-((2-(4-chlorophenyl)-4,4-dimethylcyclohex-1-en-1-yl)methyl)piperazin-1-yl)benzoyl)-4-(((1R)-1-((phenylsulfanyl)methyl)-3-(pyrrolidin-1-yl)propyl)amino)-3-((trifluoromethyl)sulfonyl)benzenesulfonamide]",11.1,≤ 1,20,≤ 1,–,–,–,–,–,–
"O=C(NS(=O)(=O)c1ccc(N[C@H](CCN2C3CCC2CC3)CSc2ccccc2)c(S(=O)(=O)C(F)(F)F)c1)c1ccc(N2CCN(CC3=C(c4ccc(Cl)cc4)CCCC3)CC2)cc1 [Example 8, 4-(((1R)-3-(7-azabicyclo[2.2.1]hept-7-yl)-1-((phenylsulfanyl)methyl)propyl)amino)-N-(4-(4-((2-(4-chlorophenyl)cyclohex-1-en-1-yl)methyl)piperazin-1-yl)benzoyl)-3-((trifluoromethyl)sulfonyl)benzenesulfonamide]",1.1,≤ 1,21.2,≤ 1,1.1,71,21,–,–,–
"O=C(NS(=O)(=O)c1ccc(N[C@H](CCN2CCOCC2)CSc2ccccc2)c(S(=O)(=O)C(F)(F)Cl)c1)c1ccc(N2CCN(CC3=C(c4ccc(Cl)cc4)CCCC3)CC2)cc1 [Example 3, 3-((chloro(difluoro)methyl)sulfonyl)-N-(4-(4-((2-(4-chlorophenyl)-1-cyclohex-1-en-1-yl)methyl)piperazin-1-yl)benzoyl)-4-(((1R)-3-(morpholin-4-yl)-1-((phenylsulfanyl)methyl)propyl)amino)benzenesulfonamide]",4.13,≤ 1,28.8,≤ 1,4.13,385,29,–,–,–
"CC1(C)CCC(c2ccc(Cl)cc2)=C(CN2CCN(c3ccc(C(=O)NS(=O)(=O)c4ccc(N[C@H](CCN5CCCC5)CSc5ccccc5)c(S(=O)(=O)C(F)(F)Cl)c4)cc3)CC2)C1 [Example 30, 3-((chloro(difluoro)methyl)sulfonyl)-N-(4-(4-((2-(4-chlorophenyl)-5,5-dimethylcyclohex-1-en-1-yl)methyl)piperazin-1-yl)benzoyl)-4-(((1R)-1-((phenylsulfanyl)methyl)-3-(pyrrolidin-1-yl)propyl)amino)benzenesulfonamide]",3.39,≤ 1,31.7,≤ 1,–,–,–,–,–,–
"O=C(NS(=O)(=O)c1ccc(N[C@H](CCN2CCOCC2)CSc2ccccc2)c(S(=O)(=O)C(F)(F)F)c1)c1ccc(N2CCN(CC3=C(c4ccc(Cl)cc4)CCCC3)CC2)cc1 [Example 7, N-(4-(4-((2-(4-chlorophenyl)cyclohex-1-en-1-yl)methyl)piperazin-1-yl)benzoyl)-4-(((1R)-3-(morpholin-4-yl)-1-((phenylsulfanyl)methyl)propyl)amino)-3-((trifluoromethyl)sulfonyl)benzenesulfonamide]",3.87,≤ 1,58.9,≤ 1,3.87,518,59,–,–,–
"CC1(C)CCC(CN2CCN(c3ccc(C(=O)NS(=O)(=O)c4ccc(N[C@H](CCN5CCCC5)CSc5ccccc5)c(S(=O)(=O)C(F)(F)Cl)c4)cc3)CC2)=C(c2ccc(Cl)cc2)C1 [Example 31, 3-((chloro(difluoro)methyl)sulfonyl)-N-(4-(4-((2-(4-chlorophenyl)-4,4-dimethylcyclohex-1-en-1-yl)methyl)piperazin-1-yl)benzoyl)-4-(((1R)-1-((phenylsulfanyl)methyl)-3-(pyrrolidin-1-yl)propyl)amino)benzenesulfonamide]",5.1,≤ 1,13,≤ 1,–,–,–,–,–,–
"CC1(C)CCC(CN2CCN(c3ccc(C(=O)NS(=O)(=O)c4ccc(N[C@H](CCN5CCOCC5)CSc5ccccc5)c(S(=O)(=O)C(F)(F)Cl)c4)cc3)CC2)=C(c2ccc(Cl)cc2)C1 [Example 2, 3-((chloro(difluoro)methyl)sulfonyl)-N-(4-(4-((2-(4-chlorophenyl)-4,4-dimethylcyclohex-1-en-1-yl)methyl)piperazin-1-yl)benzoyl)-4-(((1R)-3-(morpholin-4-yl)-1-((phenylsulfanyl)methyl)propyl)amino)benzenesulfonamide]",7.01,≤ 1,29.1,≤ 1,–,–,–,–,–,–
